# Patent US20110300116A1, “Method for Generating a Recombinant Clonal Cell Line and Novel Reagents for Use in the Method” (CELLAURA TECHNOLOGIES LTD, priority 2007, published 2011)
# Target: T1, human dopamine D1 receptor (Homo sapiens, UniProt P21728)
# T1 construct: expressed in transfected cells; host or cells: CHO cells
# Assay: Confocal imaging of fluorescent ligand binding to a mixed population cell line expressing the human dopamine D1 receptor
# Format: cell-based
# Conditions: ligand 10 nM; human D1-receptor expressing CHO mixed population before antibiotic resistance selection and prior to FACS sorting; confocal microscopy, FIG. 3
# Protocol: In FIG. 3 is shown a confocal microscope image of N-{4-aza-3,7-dioxo-7-[4-(8-methoxy-3-methyl-2,3,4,5-tetrahydro-1H-3-benzazepine-1-yl)phenylamino]heptyl}-6-{2-[4-(2-(4,4-difluoro-4,4a-dihydro-5-(thiophen-2-yl)-4-bora-3a,4a-diaza-s-indacene-3-yl)vinyl) ligand (10 nM) binding to human dopamine D1-receptor expressing CHO “cell line” before antibiotic resistance selection and prior to FACS™ sorting. Red images (light grey) show cells binding the fluorescent D1-receptor antagonist and the blue images (dark grey) show the Hoechst staining of the cellular nuclei. It is clear that only about 20% of the cells are expressing the human dopamine D1 receptor.
# A mixed population cell line expressing the human dopamine D1 receptor was screened with novel fluorescent dopamine D1 receptor antagonist N-{4-aza-3,7-dioxo-7-[4-(8-methoxy-3-methyl-2,3,4,5-tetrahydro-1H-3-benzazepine-1-yl)phenylamino]heptyl}-6-{2-[4-(2-(4,4-difluoro-4,4a-dihydro-5-(thiophen-2-yl)-4-bora-3a,4a-diaza-s-indacene-3-yl)vinyl), prepared as in Example 1. […] Using FACS cell sorting, these cells are sorted and separated into populations of cells expressing low, medium or high levels of the dopamine D1 receptor. […] A cell sorter such as the Beckman-Coulter Altra can then be used to put individual cells into single wells of a 96 well plate.
# T1 sequence (P21728 whole entry): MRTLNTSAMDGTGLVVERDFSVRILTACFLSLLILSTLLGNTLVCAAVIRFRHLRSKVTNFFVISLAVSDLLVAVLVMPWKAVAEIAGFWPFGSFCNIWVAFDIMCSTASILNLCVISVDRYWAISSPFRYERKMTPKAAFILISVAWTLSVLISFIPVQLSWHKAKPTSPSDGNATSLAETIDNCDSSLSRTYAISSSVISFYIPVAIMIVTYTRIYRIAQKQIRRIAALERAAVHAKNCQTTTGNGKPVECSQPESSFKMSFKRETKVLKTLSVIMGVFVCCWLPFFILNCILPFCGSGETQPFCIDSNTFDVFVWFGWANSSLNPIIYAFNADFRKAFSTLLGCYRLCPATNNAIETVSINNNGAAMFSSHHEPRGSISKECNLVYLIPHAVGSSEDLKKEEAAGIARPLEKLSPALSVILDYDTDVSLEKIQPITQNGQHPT
compound,measurement,value
CN1CCc2ccc(O)cc2C(c2ccc(NC(=O)CCNC(=O)CCNC(=O)CCCCCNC(=O)COc3ccc(/C=C/C4=[N+]5C(=Cc6ccc(-c7cccs7)n6[B-]5(F)F)C=C4)cc3)cc2)C1 (stereo not shown),cells that label with the fluorescent D1-receptor antagonist,about 20%
